Measurements taken from paper PMC5923396 (Marine Drugs, 2018).
pIC50: −log10 of the molar value. Where two headings read alike, the source gives them in different places.

Experiments:
murine muscle nAChR = molecular target: T1, murine muscle nAChR (Mus musculus, UniProt P02716+P04756+P20782); experiment: Two-electrode voltage clamp, acetylcholine-evoked current in Xenopus oocytes; type: cell-based; settings: for inhibition at 2.5 µM: holding potential −70 mV, read-out: inhibition extent, peak current amplitude
T1 construct: expressed in transfected cells; host or cells: Xenopus oocytes injected with plasmid DNA (pRBG4 vector)

[1] = molecular target: T2, Torpedo californica muscle-type nAChR (Tetronarce californica, UniProt P02710+P02714+P02718); experiment: Intrinsic tryptophan fluorescence quenching; type: binding; settings: 2 μM MG; λex 280 nm, λem 340 nm; prevented by α-Bgt pre-incubation
T2 construct: from tissue; host or cells: Torpedo californica electric organ membranes
Description: Intrinsic tryptophane fluorescence detection. Electric organ membranes of Torpedo californica at the final concentration of 1 nM of toxin-binding sites in a 20 mM Tris-HCl buffer were mixed with Makaluvamine G (final concentration 2 μM) and the control membranes were pre-incubated with 1 μM αBgt for 30 min. Measurements were done on a Cary Eclipse (Agilent, Santa Clara, CA, USA) spectrofluorimeter with a standard kinetics software (version 1.2) with excitation wavelength 280 nm and emission wavelength 340 nm (both with 5 nm slits). The data were exported to csv files and analyzed in the LibreOffice 6.0 Calc software (The Document Foundation, Berlin, Germany).

[2] = molecular target: T3, wild-type (WT) muscle nAChR (Mus musculus, UniProt P02716+P04756+P20782); experiment: Fluorescent detection of cytoplasmic Ca2+ rise in transfected Neuro2a cells (Case12); type: cell-based; settings: 2.5 μM MG, Ca2+ fluorescence
T3 construct: expressed in transfected cells; host or cells: mouse neuroblastoma Neuro2a cells, transient co-transfection with the Case12 calcium sensor

rat α4β2 nAChR = molecular target: T4, rat α4β2 nAChR (Rattus norvegicus, UniProt P09483+P12390); experiment: Two-electrode voltage clamp, ACh-evoked currents in Xenopus oocytes; type: cell-based
T4 construct: expressed in transfected cells; host or cells: Xenopus oocytes injected with plasmid DNA (pcDNA 3.1 vector)

α4β2 nAChR = α4β2 nAChR (Rattus norvegicus, UniProt P09483+P12390); type: binding; settings: test ligand concentrations up to 1 mM
α1β3γ2 GABAAR [3] = molecular target: T5, α1β3γ2 GABAAR (Mus musculus, UniProt P62812+P63080); experiment: Two-electrode voltage clamp, GABA-evoked currents in Xenopus oocytes; type: cell-based, murine; settings: 25 μM MG; surmountable by higher GABA concentrations
mice [4] = experiment: In vivo toxicity in mice (literature); settings: corresponds to 210 mg/kg
topoisomerase I = molecular target: topoisomerase I; set-up: method as in doi:10.1016/S0040-4020(01)96256-8; settings: read-out: IC50 topoisomerase I inhibiting; cited from earlier work
different types of cells = tested on: different types of cells; set-up: method as in doi:10.1016/S0040-4020(01)96256-8; settings: cited from earlier work
mice [5] = tested on: mice; set-up: method as in doi:10.1016/S0040-4020(01)96256-8; settings: cited from earlier work
human α7 nAChR = tested on: human α7 nAChR; set-up: method as in PMID 24686559; settings: cited from earlier work
homopentameric α1 GlyR = tested on: homopentameric α1 GlyR; set-up: method as in PMID 24686559; settings: cited from earlier work
α1β3γ2 GABAAR [6] = molecular target: T5, α1β3γ2 GABAAR; experiment: Fluorescent α-Ctx competition assay on Neuro2a cells; type: binding, murine; set-up: expressed in transfected cells; host or cells: mouse neuroblastoma Neuro2a cells, transient transfection; settings: 50 μM MG
[7] = set-up: method as in earlier work; settings: cited from earlier work
GABAAR = settings: cited from earlier work

Compound | inhibition at 2.5 µM (murine muscle nAChR; 2.5 μM MG co-applied with 10 μM acetylcholine) | inhibition at 2.5 µM (murine muscle nAChR; 2.5 μM MG co-applied with 1000 μM acetylcholine) | dependence of inhibition on membrane potential (open-channel block) (murine muscle nAChR; 2.5 μM MG, 30 μM acetylcholine, −30 to −100 mV, current amplitude and net charge) | intrinsic Trp fluorescence quenching [1] | effect on WT receptor dose response to acetylcholine [2] | inhibition of ACh-evoked currents (rat α4β2 nAChR; high micromolar range (25 μM MG, 50 μM acetylcholine)) | time to recovery of normal current amplitude after washout (rat α4β2 nAChR; reversibility of inhibition, data not shown) | inhibition of [3H]-epibatidine binding (α4β2 nAChR) | inhibition of GABA-evoked currents (α1β3γ2 GABAAR [3]) | dose not toxic to mice, molar (mice [4]) | pIC50 (topoisomerase I) | concentrations showing cytotoxicity (different types of cells) | dose not toxic to mice (mice [5]) | potency at muscle nAChR relative to human α7 nAChR (human α7 nAChR) | inhibition of α1 GlyR (homopentameric α1 GlyR) | inhibition of fluorescent α-Ctx binding (α1β3γ2 GABAAR [6]) | LD50 [7] | affinity at GABAAR (GABAAR)
Cn1cc2c3c1C(=O)C(N/C=C/c1ccc(O)cc1)=CC3=[N+](C)CC2 [MG, Makaluvamine G] | 27% | 81% | No increase in the inhibition | induces a drop of intrinsic tryptophan fluorescence | does not affect | only weak inhibition | 15 to 20 min | partial | inhibits | 629 µmol/kg | ~5.52 | 1 to 70 µM | up to 210 mg/kg | at least one order of magnitude more potent | does not inhibit | Only partial inhibition |  | 
COc1cc2c3cc1Oc1cc(ccc1O)C[C@@H]1c4c(cc(OC)c(O)c4Oc4ccc(cc4)C[C@@H]3N(C)CC2)CC[N+]1(C)C [d-tubocurarine] |  |  |  |  |  |  |  |  |  |  |  |  |  |  |  |  | less than 0.7 μmole/kg | sub-micromolar
α-cobratoxin |  |  |  |  |  |  |  |  |  |  |  |  |  |  |  |  |  | sub-micromolar
